Measurements reported in US20120010148A1, “COMBINATION THERAPIES USING NAP” (ALLON THERAPEUTICS INC., priority 2008, published 2012).
Entries after “also recorded” stand apart in the source; their conditions may differ.

Key:
[1] = test system: Human SH-SY5Y neuroblastoma; assay: Clozapine-induced cell death in SH-SY5Y cells, MTS assay; format: cell-based; details: 24 hours
Excerpt: Clozapine, a widely used anti psychotic drug may be associated with increased cell mortality. It was not known, however, whether NAP ([…], SEQ ID NO:2) treatment would inhibit clozapine associated neuronal death. To address this question and validate the efficiency of using a NAP-clozapine combination drug candidate, an experimental test system in cell culture was established (Heiser et al., Journal of Psychopharmacology 21(8):851-856 (2007)). Human SH-SY5Y neuroblastoma supplemented with 15% fetal calf serum (FCS) (Beit-Haemek, Israel), 1% penicillin-streptomycin, and 1% glutamine were incubated in a 5% CO2 atmosphere. Thirty-six thousand cells/well (in a 96 well plates) were plated 24 hours prior to the clozapine or NAP treatment. Clozapine (CLZ) was obtained from Sigma Chemicals (Sigma, Israel). Thirty-six thousand cells per well (in at least 6 replicate wells) were exposed to clozapine (CLZ, 20 μg/ml) or clozapine (CLZ, 20 μg/ml)+NAP or NAP alone (10^−15M-10^−10 M) for 24 hours at 37° C. Drug and control solutions were dissolved in ethanol. Measurement of metabolic activity and survival was determined by non-radioactive cell proliferation assay (MTS) (Promega, USA) and evaluated by an ELISA-reader at 490 nm wavelength.

[2] = test system: Rat pheochromocytoma cells (PC12); assay: Serum-deprivation survival of PC12 cells, MTS viability assay; format: cell-based
Description: The survival-promoting effects of galantamine (an acetylcholine-esterase inhibitor, or AcEI), NAP, and their combinatorial treatment were assessed in cell cultures. Cell culture method was adapted from Calderon et al., J Neurosci Res 56, 620-631 (1999).
Rat pheochromocytoma cells (PC12) were grown in Dulbecco's modified Eagle's medium (DMEM) supplemented with 8% fetal calf serum, 8% horse donor serum, 2 mm L-glutamine, and 1% penicillin-streptomycin solution.
For the experiments, cells were harvested, re-suspended, and seeded in 96-well plates at a concentration of 1.5×10^4 cells/well. Cells were pretreated with NAP and Galantamine [Galantamine (0.1, 0.5, 1, 10 μM); NAP (10^−8M, 10^−1° M, 10^−12M, 10^−15M)] 3 hours prior to serum deprivation and during serum deprivation. The assay for cell viability was performed 48 hours after serum deprivation. Calibration method is described below.
Culture medium was replaced by fresh medium without serum, containing NAP and Galantamine. Cells were incubated for 48 hours and then subject to MTS viability assay.
PC12 cells were seeded and treated as mentioned above without any drugs for 24 hours, 48 hours, and 72 hours. MTS results are represented by the percentage of viable cells from the serum deprived treatment vs. control treatment.

STOP+/− mice = assay: Morris water maze and probe test; format: in vivo, mouse
Description: The NAP vehicle solution (termed DD), included the following ingredients (per milliliter): 7.5 mg of NaCl, 1.7 mg of citric acid monohydrate, 3 mg of disodium phosphate dihydrate, and 0.2 mg of benzalkonium chloride solution (50%) (Alcalay R N et al., Neurosci Lett, 361(1-3): 128-131 (2004)). NAP or vehicle solution (DD) was administered to mice hand-held in a semisupine position with nostrils facing the investigator. A pipette tip was used to administer 2.5 μl/nostril. The mouse was hand-held until the solution was totally absorbed (10 s). […]
The test measures the ability of rodents to learn and remember, by spatial navigation, the place of the hidden platform in a round water maze. […] Here, mice were monitored on five consecutive swimming days. […] The time required to reach the platform during the first daily test (indicative of learning and intact reference memory) and the time required to reach the platform in the second trial [indicative of short-term (working) memory] were measured and recorded separately. […] The platform was removed from the maze and the time spent by the mice in the pool's quadrant where the platform used to be was recorded. […] Mice were released into the water and the time taken to find the platform was recorded (maximum 60 seconds). […]

cell cultures = details: cited from earlier work
[3] = test system: animal models simulating parts of the Alzheimer's disease pathology; details: in vivo; cited from earlier work
normal aging rats = details: intranasal administration; cited from earlier work
[4] = test system: peripheral blood mononuclear cells (PBMCs); details: cited from earlier work
[5] = test system: ADNP-deficient mice, triple transgenic mouse model of AD, model of frontotemporal dementia; details: in vivo; cited from earlier work
schizophrenia patients = details: human clinical trial; cited from earlier work

CC[C@H](C)[C@H](NC(=O)[C@H](CO)NC(=O)[C@@H](NC(=O)[C@@H]1CCCN1C(=O)[C@H](C)NC(=O)[C@@H](N)CC(N)=O)C(C)C)C(=O)N1CCC[C@H]1C(=O)N[C@@H](CCC(N)=O)C(=O)O [NAP]
effect on clozapine induced cell death ([1]; NAP 10^−15M with clozapine 20 μg/ml, FIG. 1): reversed | cell mortality with NAP alone ([1]; NAP alone 10^−15M-10^−10 M, FIG. 2): does not affect cell mortality; also recorded: did not affect cell mortality | protection against extensive cell death ([2]; >40% cell death, compared against cultures supplemented with serum, FIG. 7): Neither NAP nor galantamine protected | protection against serum deprivation ([2]; NAP alone, FIG. 5): provided protection | probe test, time in area where the platform used to be (spatial memory) (STOP+/− mice; Example 3, STOP+/− male mice, 5th day, NAP intranasal 0.5 μg/mouse/day or clozapine IP, FIG. 10): significantly improved the performance; also recorded: significantly more time | Morris water maze learning and memory (STOP+/− mice; Example 4, STOP+/− mice, NAP 0.5 microgram/mouse/day, clozapine 3 mg/kg/day, FIG. 13): protection against adverse clozapine effects on learning | neuroprotective activity against a wide variety of toxins (cell cultures): neuroprotective activity at femtomolar concentrations | protection in Alzheimer's disease pathology models [3]: protective | performance in the Morris water maze (normal aging rats): improved performance | anti-CD3-/anti-CD28-stimulated proliferation [4]: suppressed | expression of CD69, CD154 and IFN-γ [4]: decreased the expression | tau hyperphosphorylation and cognitive functions [5]: reduces tau hyperphosphorylation and enhances cognitive functions | activity in schizophrenia patients (schizophrenia patients): shown activity
